Test results published in patent US20240166617A1, “PHOSPHOINOSITIDE 3 KINASE BETA INHIBITORS AND COMPOSITIONS AND METHODS THEREOF” (Geode Therapeutics Inc., priority 2021, published 2024).
Like-named read-outs stand apart in the source and are kept apart here.

Legend:
[1] = target: T1, PIK3Cb_h (Homo sapiens, UniProt P42338); test: Enzyme binding assay (KINOMEscan); conditions: Eurofins DiscoveRx
T1 construct: purchased Eurofins DiscoveRx Corporation
Experimental: (§1) Kinase enzyme binding affinities of compounds disclosed herein were determined using the KINOMEscan technology performed by Eurofins DiscoveRx Corporation, San Diego, California, USA (www.eurofinsdiscoveryservices.com). Table 2 reports the obtained PIK3β Kd values (nM) of, with the PIK3β Kd being the inhibitor binding constant. Table 3 reports the obtained Kd values (nM), with the Kd being the inhibitor binding constant: […]

[2] = target: T2, PIK3Cg_h (Homo sapiens, UniProt P48736); test: Enzyme binding assay (KINOMEscan); conditions: Eurofins DiscoveRx
T2 construct: purchased Eurofins DiscoveRx Corporation
T2 sequence (P48736 whole entry): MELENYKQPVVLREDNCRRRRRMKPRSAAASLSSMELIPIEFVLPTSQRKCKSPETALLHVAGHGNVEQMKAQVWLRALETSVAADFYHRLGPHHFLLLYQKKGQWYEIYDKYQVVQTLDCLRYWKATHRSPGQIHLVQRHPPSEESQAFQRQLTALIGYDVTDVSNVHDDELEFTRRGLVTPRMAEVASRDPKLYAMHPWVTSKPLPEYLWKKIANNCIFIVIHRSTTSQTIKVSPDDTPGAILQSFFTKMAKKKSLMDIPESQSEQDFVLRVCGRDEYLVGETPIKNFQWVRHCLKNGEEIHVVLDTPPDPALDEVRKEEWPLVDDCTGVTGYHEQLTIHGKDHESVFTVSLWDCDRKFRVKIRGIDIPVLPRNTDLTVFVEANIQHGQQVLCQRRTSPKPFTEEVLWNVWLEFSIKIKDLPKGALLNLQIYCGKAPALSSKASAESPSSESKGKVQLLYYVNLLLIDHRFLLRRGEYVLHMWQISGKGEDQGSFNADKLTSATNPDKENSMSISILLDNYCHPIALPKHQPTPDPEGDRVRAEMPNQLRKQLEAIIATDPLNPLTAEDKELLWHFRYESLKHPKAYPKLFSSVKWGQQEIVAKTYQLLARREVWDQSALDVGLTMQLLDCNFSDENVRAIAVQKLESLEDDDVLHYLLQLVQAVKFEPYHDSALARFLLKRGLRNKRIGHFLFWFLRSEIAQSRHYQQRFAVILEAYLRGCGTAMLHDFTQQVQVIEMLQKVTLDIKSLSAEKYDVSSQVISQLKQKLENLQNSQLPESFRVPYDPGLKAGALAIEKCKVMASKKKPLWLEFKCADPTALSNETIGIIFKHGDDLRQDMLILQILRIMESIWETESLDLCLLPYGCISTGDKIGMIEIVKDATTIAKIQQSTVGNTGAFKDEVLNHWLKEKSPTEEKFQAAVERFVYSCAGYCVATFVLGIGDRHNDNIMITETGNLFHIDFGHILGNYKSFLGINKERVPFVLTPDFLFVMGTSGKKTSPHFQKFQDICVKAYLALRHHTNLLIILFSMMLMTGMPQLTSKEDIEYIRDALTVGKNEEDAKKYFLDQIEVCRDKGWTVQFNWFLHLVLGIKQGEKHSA
Experimental: as §1

[3] = target: T3, PIK3Ca_h (Homo sapiens, UniProt P42336); test: Enzyme binding assay (KINOMEscan); conditions: Eurofins DiscoveRx
T3 construct: purchased Eurofins DiscoveRx Corporation
T3 sequence (P42336 whole entry): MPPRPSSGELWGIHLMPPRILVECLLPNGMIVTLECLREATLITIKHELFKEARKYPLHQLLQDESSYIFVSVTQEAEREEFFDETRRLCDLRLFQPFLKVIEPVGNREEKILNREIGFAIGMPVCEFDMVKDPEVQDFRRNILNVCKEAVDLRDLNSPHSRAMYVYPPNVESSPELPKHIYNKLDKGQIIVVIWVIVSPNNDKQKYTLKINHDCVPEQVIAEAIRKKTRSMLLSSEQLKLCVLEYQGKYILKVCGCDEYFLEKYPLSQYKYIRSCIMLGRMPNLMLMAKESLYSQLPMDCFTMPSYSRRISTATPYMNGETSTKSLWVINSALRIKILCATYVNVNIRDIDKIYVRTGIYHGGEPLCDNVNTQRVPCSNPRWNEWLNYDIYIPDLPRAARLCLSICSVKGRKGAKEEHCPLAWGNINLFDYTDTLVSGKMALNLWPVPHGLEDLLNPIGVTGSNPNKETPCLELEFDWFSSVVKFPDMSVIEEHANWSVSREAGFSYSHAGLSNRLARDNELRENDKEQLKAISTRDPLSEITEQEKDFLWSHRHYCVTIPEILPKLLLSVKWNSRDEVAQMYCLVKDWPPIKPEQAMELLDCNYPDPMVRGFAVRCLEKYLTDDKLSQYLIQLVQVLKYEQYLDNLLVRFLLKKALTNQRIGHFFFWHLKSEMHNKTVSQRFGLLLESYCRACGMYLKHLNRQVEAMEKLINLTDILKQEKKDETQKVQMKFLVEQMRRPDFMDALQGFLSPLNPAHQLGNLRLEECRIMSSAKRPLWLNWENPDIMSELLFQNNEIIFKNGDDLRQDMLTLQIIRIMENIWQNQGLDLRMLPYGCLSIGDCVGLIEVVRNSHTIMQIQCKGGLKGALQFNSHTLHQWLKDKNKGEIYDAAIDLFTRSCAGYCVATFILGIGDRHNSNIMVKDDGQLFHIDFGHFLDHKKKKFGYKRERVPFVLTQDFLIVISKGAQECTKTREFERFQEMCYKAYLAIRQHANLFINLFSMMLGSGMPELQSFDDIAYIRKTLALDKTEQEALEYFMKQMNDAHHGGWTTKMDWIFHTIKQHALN
Experimental: as §1

[4] = target: T4, PIK3Cd_h (Homo sapiens, UniProt O00329); test: Enzyme binding assay (KINOMEscan); conditions: Eurofins DiscoveRx
T4 construct: purchased Eurofins DiscoveRx Corporation
T4 sequence (O00329 1-1044): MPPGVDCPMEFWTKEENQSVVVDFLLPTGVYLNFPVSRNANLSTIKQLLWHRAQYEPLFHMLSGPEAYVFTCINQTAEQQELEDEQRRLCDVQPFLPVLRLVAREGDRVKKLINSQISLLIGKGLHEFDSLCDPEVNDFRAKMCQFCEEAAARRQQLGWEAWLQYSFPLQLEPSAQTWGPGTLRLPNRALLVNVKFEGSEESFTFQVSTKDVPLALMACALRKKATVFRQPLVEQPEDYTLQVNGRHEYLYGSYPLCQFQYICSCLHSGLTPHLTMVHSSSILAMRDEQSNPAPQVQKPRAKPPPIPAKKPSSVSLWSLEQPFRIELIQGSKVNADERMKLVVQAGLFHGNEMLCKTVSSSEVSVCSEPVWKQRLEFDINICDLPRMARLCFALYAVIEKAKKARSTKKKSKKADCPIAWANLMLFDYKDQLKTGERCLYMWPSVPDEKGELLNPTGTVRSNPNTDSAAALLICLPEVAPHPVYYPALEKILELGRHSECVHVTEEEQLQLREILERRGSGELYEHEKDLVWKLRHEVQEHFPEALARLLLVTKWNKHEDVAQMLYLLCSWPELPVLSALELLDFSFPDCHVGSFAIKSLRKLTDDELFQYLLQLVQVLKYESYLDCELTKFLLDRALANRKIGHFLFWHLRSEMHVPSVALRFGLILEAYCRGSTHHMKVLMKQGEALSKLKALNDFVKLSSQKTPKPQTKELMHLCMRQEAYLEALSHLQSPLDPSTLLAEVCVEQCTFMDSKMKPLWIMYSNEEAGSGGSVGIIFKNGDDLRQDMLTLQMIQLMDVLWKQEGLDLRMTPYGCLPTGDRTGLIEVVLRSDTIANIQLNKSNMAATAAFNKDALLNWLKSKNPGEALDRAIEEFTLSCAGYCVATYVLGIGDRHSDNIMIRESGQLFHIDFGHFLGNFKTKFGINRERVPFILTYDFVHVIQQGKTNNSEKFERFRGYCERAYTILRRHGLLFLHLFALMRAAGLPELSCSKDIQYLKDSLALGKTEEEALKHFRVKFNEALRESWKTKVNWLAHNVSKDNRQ
Experimental: as §1

[5] = system: phosphorylation of AKT in HCC70 cells; test: Cellular assay: phosphorylation of AKT in HCC70 cells (western blotting); format: cell-based; conditions: Homo sapiens, HCC70, 1 h, HCC70 cells, compound 500 nM, 60 min, inhibition of Akt activity from band intensities
Procedure, shortened: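 HCC70 cells treated with compound at 500 nM (0.1% DMSO control) for 60 min at 37 °C; pAKT Ser473 and Thr308 plus total AKT measured by western blot with fluorescent detection. Inhibition from band intensities, binned as + (20–60%), ++ (60–80%), +++ (80–90%), ++++ (>90%).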

[6] = read-out: Index of AI (HCC70) p-AKT Thr 308
[7] = read-out: Index of AI (HCC70) p-AKT ser 473

T1 sequence (P42338 whole entry): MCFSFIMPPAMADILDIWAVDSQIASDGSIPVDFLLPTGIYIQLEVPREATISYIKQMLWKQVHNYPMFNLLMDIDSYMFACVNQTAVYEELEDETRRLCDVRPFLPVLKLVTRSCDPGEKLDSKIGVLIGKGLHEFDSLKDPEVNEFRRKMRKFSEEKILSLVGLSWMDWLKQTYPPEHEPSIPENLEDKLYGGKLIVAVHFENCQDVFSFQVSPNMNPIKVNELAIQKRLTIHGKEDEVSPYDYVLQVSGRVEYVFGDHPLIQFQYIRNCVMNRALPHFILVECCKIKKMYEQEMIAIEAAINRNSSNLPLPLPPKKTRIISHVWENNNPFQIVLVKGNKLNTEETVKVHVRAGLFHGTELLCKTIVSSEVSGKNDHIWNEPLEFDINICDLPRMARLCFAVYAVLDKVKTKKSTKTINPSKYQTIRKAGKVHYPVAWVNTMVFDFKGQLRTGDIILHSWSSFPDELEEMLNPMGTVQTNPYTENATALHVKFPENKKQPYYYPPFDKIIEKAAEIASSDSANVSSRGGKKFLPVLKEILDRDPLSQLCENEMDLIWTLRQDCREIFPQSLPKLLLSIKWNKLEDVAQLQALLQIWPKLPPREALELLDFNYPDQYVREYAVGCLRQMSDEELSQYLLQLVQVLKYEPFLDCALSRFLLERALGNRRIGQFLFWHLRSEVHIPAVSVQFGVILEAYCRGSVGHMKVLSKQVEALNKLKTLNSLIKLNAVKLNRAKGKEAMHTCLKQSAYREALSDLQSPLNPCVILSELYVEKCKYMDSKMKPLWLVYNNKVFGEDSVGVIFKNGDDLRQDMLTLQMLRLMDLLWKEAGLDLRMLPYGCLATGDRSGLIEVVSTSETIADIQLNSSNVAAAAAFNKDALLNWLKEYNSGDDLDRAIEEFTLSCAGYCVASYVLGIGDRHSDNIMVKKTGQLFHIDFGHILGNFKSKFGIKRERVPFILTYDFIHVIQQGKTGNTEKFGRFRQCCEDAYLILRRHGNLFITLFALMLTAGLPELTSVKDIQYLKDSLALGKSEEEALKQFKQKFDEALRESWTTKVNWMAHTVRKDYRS

SMILES | Kd [1] | Kd [2] | Kd [3] | Kd [4] | inhibition at 0.5 µM [5, 6] | inhibition at 0.5 µM [5, 7]
CC(Nc1cc(F)cc(F)c1)c1cc(C(=O)N2CCC(N(C)C)C2)cn2c(=O)cc(N3CCOCC3)nc12 (single isomer, unassigned) [Compound 48-P1] | 400 nM | > 10000 nM | > 10000 nM | > 10000 nM | – | –
CC(Nc1cc(F)cc(F)c1)c1cc(N2CCOCC2=O)cc2c(=O)cc(N3CCOCC3)oc12 (stereo not shown) [Compound 10, 4-(8-(1-((3,5-difluorophenyl)amino)ethyl)-2-morpholino-4-oxo-4H-chromen-6-yl)morpholin-3-one] | 0.2 nM | 730 nM | 22 nM | 8 nM | > 90% | > 90%
CNS(=O)(=O)c1cc(C(C)Nc2cc(F)cc(F)c2)c2oc(N3CCOCC3)cc(=O)c2c1 (stereo not shown) [Compound 16, 8-(1-((3,5-difluorophenyl)amino)ethyl)-N-methyl-2-morpholino-4-oxo-4H-chromene-6-sulfonamide] | 0.19 nM | 110 nM | 36 nM | 8.1 nM | > 90% | > 90%
CC(Nc1cc(F)cc(F)c1)c1cc(NC2=NC(C)(C)CO2)cc2c(=O)cc(N3CCOCC3)oc12 (stereo not shown) [Compound 21, 8-(1-((3,5-difluorophenyl)amino)ethyl)-6-((4,4-dimethyl-4,5-dihydrooxazol-2-yl)amino)-2-morpholino-4H-chromen-4-one] | 0.31 nM | 2200 nM | 45 nM | 58 nM | 80 to 90% | 80 to 90%
CN(C)C(=O)c1cc(CN2CCc3c(F)cc(F)cc32)c2oc(N3CCOCC3)cc(=O)c2c1 [Compound 32, 8-((4,6-difluoroindolin-1-yl)methyl)-N,N-dimethyl-2-morpholino-4-oxo-4H-chromene-6-carboxamide] | 0.18 nM | 500 nM | 54 nM | 19 nM | > 90% | > 90%
CC1Cc2c(F)cccc2N1Cc1cc(C(=O)N(C)C)cc2c(=O)cc(N3CCOCC3)oc12 (stereo not shown) [Compound 33, 8-((4-fluoro-2-methylindolin-1-yl)methyl)-N,N-dimethyl-2-morpholino-4-oxo-4H-chromene-6-carboxamide] | 0.49 nM | 320 nM | 17 nM | 12 nM | > 90% | > 90%
CN(C)CCNC(=O)c1cc(CN2CCc3c(F)cc(F)cc32)c2oc(N3CCOCC3)cc(=O)c2c1 [Compound 39, 8-((4,6-difluoroindolin-1-yl)methyl)-N-(2-(dimethylamino)ethyl)-2-morpholino-4-oxo-4H-chromene-6-carboxamide] | 0.072 nM | – | – | – | > 90% | > 90%
O=C(c1cc(CN2CCc3c(F)cc(F)cc32)c2oc(N3CCOCC3)cc(=O)c2c1)N1CCCC1 [Compound 42, 8-((4,6-difluoroindolin-1-yl)methyl)-2-morpholino-6-(pyrrolidine-1-carbonyl)-4H-chromen-4-one] | 0.26 nM | – | – | – | > 90% | > 90%
CN1CCN(C(=O)c2cc(CN3CCc4c(F)cc(F)cc43)c3oc(N4CCOCC4)cc(=O)c3c2)CC1 [Compound 44, 8-((4,6-difluoroindolin-1-yl)methyl)-6-(4-methylpiperazine-1-carbonyl)-2-morpholino-4H-chromen-4-one] | 1.3 nM | – | – | – | 80 to 90% | 80 to 90%
CC(Nc1cc(F)cc(F)c1)c1cc(C(=O)N2CCC(N(C)C)C2)cn2c(=O)cc(N3CCOCC3)nc12 (stereo not shown) [Compound 48, 9-(1-((3,5-difluorophenyl)amino)ethyl)-7-(3-(dimethylamino)pyrrolidine-1-carbonyl)-2-morpholino-4H-pyrido[1,2-a]pyrimidin-4-one] | 0.26 nM | 730 nM | 130 nM | 40 nM | 80 to 90% | 80 to 90%
C[C@@H](Nc1cc(F)cc(F)c1)c1cc(C(=O)N2CC[C@@H](N(C)C)C2)cn2c(=O)cc(N3CCOCC3)nc12 [Compound 48-P3, 9-((R)-1-((3,5-difluorophenyl)amino)ethyl)-7-((R)-3-(dimethylamino)pyrrolidine-1-carbonyl)-2-morpholino-4H-pyrido[1,2-a]pyrimidin-4-one] | – | 1100 nM | 92 nM | 8.9 nM | – | –
C[C@@H](Nc1cc(F)cc(F)c1)c1cc(C(=O)N2CC[C@H](N(C)C)C2)cn2c(=O)cc(N3CCOCC3)nc12 [Compound 48-P4, 9-((R)-1-((3,5-difluorophenyl)amino)ethyl)-7-((S)-3-(dimethylamino)pyrrolidine-1-carbonyl)-2-morpholino-4H-pyrido[1,2-a]pyrimidin-4-one] | – | 1600 nM | 190 nM | 18 nM | – | –
CC(Nc1cc(F)cc(F)c1)c1cc(C(=O)N2CC(N(C)C)C2)cn2c(=O)cc(N3CCOCC3)nc12 (stereo not shown) [Compound 49, 9-(1-((3,5-difluorophenyl)amino)ethyl)-7-(3-(dimethylamino)azetidine-1-carbonyl)-2-morpholino-4H-pyrido[1,2-a]pyrimidin-4-one] | 0.67 nM | – | – | – | 60 to 80% | 60 to 80%
C[C@@H](Nc1cc(F)cc(F)c1)c1cc(C(=O)N2CC[C@@H](N(C)C)C2)cn2c(=O)cc(N3CCOCC3)nc12 [Compound 50, 9-((R)-1-((3,5-difluorophenyl)amino)ethyl)-7-((R)-3-(dimethylamino)pyrrolidine-1-carbonyl)-2-morpholino-4H-pyrido[1,2-a]pyrimidin-4-one] | 0.11 nM | – | – | – | > 90% | > 90%
C[C@@H](Nc1cc(F)cc(F)c1)c1cc(C(=O)N2CC[C@H](N(C)C)C2)cn2c(=O)cc(N3CCOCC3)nc12 [Compound 51, 9-((R)-1-((3,5-difluorophenyl)amino)ethyl)-7-((S)-3-(dimethylamino)pyrrolidine-1-carbonyl)-2-morpholino-4H-pyrido[1,2-a]pyrimidin-4-one] | 0.12 nM | – | – | – | > 90% | > 90%
Cc1cc(C(C)N2c3cc(F)cc(F)c3CC2C)c2nc(N3CCOCC3)cc(=O)n2c1 (stereo not shown) [Compound 58, 9-(1-(4,6-difluoro-2-methylindolin-1-yl)ethyl)-7-methyl-2-morpholino-4H-pyrido[1,2-a]pyrimidin-4-one] | 2 nM | – | – | – | 80 to 90% | 80 to 90%
Cc1cc(C(C)N2CCc3c(F)cc(F)cc32)c2nc(N3CCOCC3)cc(=O)n2c1 (stereo not shown) [Compound 59, 9-(1-(4,6-difluoroindolin-1-yl)ethyl)-7-methyl-2-morpholino-4H-pyrido[1,2-a]pyrimidin-4-one] | 0.61 nM | – | – | – | 80 to 90% | 80 to 90%
C[C@@H]1CN(c2cc(=O)c3cc(C(=O)N(C)C)cc(CN4CCc5c(F)cc(F)cc54)c3o2)CCO1 [Compound 90, (R)-8-((4,6-difluoroindolin-1-yl)methyl)-N,N-dimethyl-2-(2-methylmorpholino)-4-oxo-4H-chromene-6-carboxamide] | 0.075 nM | 87 nM | 3.2 nM | 1.5 nM | > 90% | > 90%
